SMILES strings stand for the structures. Positions count from the first letter of the chain named.

Test [1] has as its target T1, human DNA topoisomerase I wild type (YCpGAL1 hTOP1) (Homo sapiens, UniProt P11387).
T1 sequence (P11387 1-765): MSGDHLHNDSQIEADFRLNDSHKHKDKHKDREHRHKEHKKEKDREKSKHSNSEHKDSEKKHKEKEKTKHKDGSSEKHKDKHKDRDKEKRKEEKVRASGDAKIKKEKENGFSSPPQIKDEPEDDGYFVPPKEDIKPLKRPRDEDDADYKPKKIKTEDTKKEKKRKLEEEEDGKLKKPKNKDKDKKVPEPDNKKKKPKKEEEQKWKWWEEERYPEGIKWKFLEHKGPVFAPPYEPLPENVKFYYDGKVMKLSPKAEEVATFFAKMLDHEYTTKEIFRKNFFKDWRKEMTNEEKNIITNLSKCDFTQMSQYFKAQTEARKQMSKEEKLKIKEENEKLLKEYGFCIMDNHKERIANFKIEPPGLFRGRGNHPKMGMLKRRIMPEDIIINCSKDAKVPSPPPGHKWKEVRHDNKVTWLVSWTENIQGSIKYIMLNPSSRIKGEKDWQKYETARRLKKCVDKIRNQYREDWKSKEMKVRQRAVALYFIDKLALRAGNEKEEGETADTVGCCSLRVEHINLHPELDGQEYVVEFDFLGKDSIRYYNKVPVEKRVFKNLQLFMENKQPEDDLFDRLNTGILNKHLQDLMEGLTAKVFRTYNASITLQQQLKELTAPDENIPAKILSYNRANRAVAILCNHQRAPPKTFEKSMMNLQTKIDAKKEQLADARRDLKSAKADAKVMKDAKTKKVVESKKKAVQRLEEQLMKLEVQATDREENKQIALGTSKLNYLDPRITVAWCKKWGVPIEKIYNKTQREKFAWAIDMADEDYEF
The experiment in a line: In vivo spot test, yeast transformed with human DNA topoisomerase I wild type. As to conditions: Saccharomyces cerevisiae EKY2, 2% galactose, drug 45 μM, 48-72 h at 30° C.
Method: Before to transform the yeast cells with DNA (lithium acetate method), yeast was grown on solid medium. It was streaked on plates of 90 mm containing sterile solid medium (YPDA) (10 g yeast, 20 g peptone, 20 g dextrose, 0.7 g adenine, 20 g glucose, 20 g agar for liter). Colonies were grown after 48 h at 30° C. One day before the transformation, a single yeast colony of the strain to be transformed was inoculated in 5 ml of steril liquid YPDA (the medium above mentioned without agar). The colony was grown to saturation overnight under stirring at 30° C. The day after, 5 ml of saturated culture was diluted in 100 ml of YPDA liquid medium and grown at 30° C. to reach an optical density of 1.0 at 600 nm. Cells were centrifuged for 5 min at 4000×g at room temperature and the pellet was resuspended in 25 ml of a solution (T/E) containing 10 mM Tris-EDTA pH7.5, 1 mM EDTA and 100 mM lithium acetate. The yeast suspension was centrifuged for 5 min at 4000×g at room temperature. The pellet was resuspended in a fresh solution above described (about 500 μl) to obtain 2×10^9 cells/ml. To have the transformation, 200 μg of DNA carrier were mixed with 1 μg transforming DNA and 200 μl yeast cells in an eppendorf. Subsequently, 1.2 ml of a solution TE/lithium acetate containing 40% PEG were added and the yeast suspension was kept under stirring for 30 min at 30° C. A heat shock was performed by keeping the yeast suspension at 42° C. for 15 min. Subsequently it was centrifuged 5 sec at room temperature. Yeast was resuspended in TE buffer and spread up onto CM (complete minimal) dropout medium on plates. CM was previously prepared with 1.3 g of dropout powder containing different aminoacids without uracil, 1.7 g yeast nitrogen base without aminoacids and ammonium sulfate, 5 g ammonium sulfate, 20 g glucose and 20 of agar for liter). The plates were incubated at 30° C. until transformants appear.
To perform the in vivo spot test, the transformants were inoculated in 5 ml of steril liquid CM medium and grown overnight under stirring at 30° C. The day after a dilution of the yeast colonies was made to reach an optical density at 600 nm of 0.3. Starting from this first dilution, other serial dilutions (1:10, 1:100, 1:1000) were performed in plates of 96 well. 5 μl of each dilution were put on plates of 90 mm containing solid CM medium. For the control samples, 2% glucose or 2% galactose were added; for the camptothecin-derivatives treated samples, 2% galactose and the drugs at a concentration 45 μM were added. The yeast colonies were incubated at 30° C. for 48-72 h and analyzed macroscopically.

Test [2] has as its target T2, human DNA topoisomerase I mutant YCpGAL1htop1K720E (Homo sapiens, UniProt P11387, K720E).
T2 sequence (P11387 1-765 K720E): T1 sequence (P11387 1-765) with K720E
Put plainly: In vivo spot test, yeast transformed with human DNA topoisomerase I mutant K720E. Type of test: cell-based. Conditions: Saccharomyces cerevisiae EKY2, 2% galactose, drug 45 μM, 48-72 h at 30° C.

In test [3] the test system is A2780/ADR multidrug-resistant ovarian carcinoma. The experiment in a line: Antitumor activity on A2780/ADR resistant tumor xenograft. Type of test: in vivo, human. As to conditions: A2780/ADR s.c. in nude athymic mice, q4d × 4. The source says:
(§1) Using a q4d dosing schedule repeated for 3-5 doses, ST1968 was compared to irinotecan or other known chemotherapeutic agents against different human tumor models (Table 2), including A2780/ADR multidrug-resistant ovarian carcinoma which overexpresses PgP glycoprotein, A2780/DDP platinum-resistant ovarian carcinoma and DU145RC1 camptothecin-resistant prostate carcinoma which was previously selected by continuous exposure of the parental sensitive DU145 to 9-nitro-camptothecin (Urasaki Y et al., 2001, Cancer Res 61, 1964-9). On this selected tumor cell line, a Topoisomerase I mutation which changes the arginine 364 codon to histidine (R364H) was found. The 364H point mutation was located in the highly conserved core, a region of Topoisomerase I within the Topoisomerase I amino acid residues 361-364 critical for camptothecin resistance. Moreover, this mutation site is close to the catalytic tyrosine. The resistance of the Topoisomerase I/R364H is probably attributable to the loss of a critical H-bond between R364 and camptothecin E-ring lactone moiety.
(§2) Exponentially growing tumor cells were injected s.c. into nude athymic mice. The number of tumor cells was previously chosen by a growth curve. Mice were housed inside cages of makrolon (33.2×15×13 cm) with stainless steel cover-feed and sterilized and dust-free bedding cobs. Animals were housed under a light-dark cycle, keeping temperature and humidity constant. Parameters of the animal rooms were assessed as follows: 22±2° C. temperature, 55±10% relative humidity, about 15-20 filtered air changes/hour and 12 hour circadian cycle of artificial light (7 a.m., 7 p.m.). At request, the environmental conditions were monitored and the data are retained in Animal Housing Archives. Drinking water was supplied ad libitum. Each mouse was offered daily a complete pellet diet (GLP 4RF21, Mucedola) throughout the study. The analytical certificates of animal food and water are retained at Sigma-Tau premises. All animals were weighed before starting the experiment and were subdivided into the different dosage groups. Each cage was identified by a paper tag indicating: cage number, group, date of tumor injection, starting date of treatment, name of the test item, dose and route of administration, date of sacrifice.
(§3) Tumor growth was followed by biweekly measurements of tumor diameters with a Vernier caliper. Tumor volume (TV, mm^3) was calculated as: [length (mm)×width (mm)^2]/2, where the width and the length are the shortest and the longest diameters of each tumor, respectively.
(§4) The efficacy of the drug treatment was assessed as: a) Tumor volume inhibition (TVI %) in treated versus control mice, calculated as: 100−[(mean tumor volume of treated animals/mean tumor volume of control animals)×100]; b) LCK (log10 cell kill) calculated by the formula LCK=(T−C)/3.32×DT, where T and C are the mean times (days) required for treated (T) and control (C) tumor, respectively, to reach 1000 mm^3, and DT is the doubling time of control tumors; CR meaning no evidence of tumor lasting for at least 10 days.
A general note: In xenograft studies the graft and the host belong to different species.

Test [4] relates to A2780/DDP platinum-resistant ovarian carcinoma. Put plainly: Antitumor activity on A2780/DDP resistant tumor xenograft. As to conditions: A2780/DDP s.c. in nude athymic mice, q4d × 3. Type of test: in vivo, human.
Source text: as §1, §2, §3, §4

Test [5] concerns DU145RC1 camptothecin-resistant prostate carcinoma. Put plainly: Antitumor activity on DU145RC1 resistant tumor xenograft. Type of test: in vivo, human. Conditions: DU145 RC1 s.c. in nude athymic mice, q4d × 5.
Source text: as §1, §2, §3, §4

Test [6] concerns DU145 sensitive prostate carcinoma. The experiment in a line: Antitumor activity on DU145 tumor xenograft. Type of test: in vivo, human. As to conditions: DU145 s.c. in nude athymic mice, 35 iv mg/kg, q4d × 4. The text has this:
Using a q4d dosing schedule repeated for 3-5 doses, ST1968 was compared to irinotecan or other known chemotherapeutic agents against different human tumor models (Table 2), including A2780/ADR multidrug-resistant ovarian carcinoma which overexpresses PgP glycoprotein, A2780/DDP platinum-resistant ovarian carcinoma and DU145RC1 camptothecin-resistant prostate carcinoma which was previously selected by continuous exposure of the parental sensitive DU145 to 9-nitro-camptothecin (Urasaki Y et al., 2001, Cancer Res 61, 1964-9). On this selected tumor cell line, a Topoisomerase I mutation which changes the arginine 364 codon to histidine (R364H) was found. […]
Exponentially growing tumor cells were injected s.c. into nude athymic mice. […] Parameters of the animal rooms were assessed as follows: 22±2° C. temperature, 55±10% relative humidity, about 15-20 filtered air changes/hour and 12 hour circadian cycle of artificial light (7 a.m., 7 p.m.). At request, the environmental conditions were monitored and the data are retained in Animal Housing Archives. […]
Tumor growth was followed by biweekly measurements of tumor diameters with a Vernier caliper. Tumor volume (TV, mm^3) was calculated as: [length (mm)×width (mm)^2]/2, where the width and the length are the shortest and the longest diameters of each tumor, respectively. […]

In the case of `CC[C@@]1(O)C(=O)OCc2c1cc1n(c2=O)Cc2c-1nc1ccccc1c2/C=N/OC(C)(C)C` [ST1481, 7-t-butoxyiminomethylcamptothecin], in test [1], the “growth of the yeasts transformed with the DNA topoisomerase I wild type” value (from here on “growth of the yeasts transformed”) is listed as “inhibit the growth”.

On to `CCC1(O)C(=O)OCc2c1cc1n(c2=O)Cc2c-1nc1ccccc1c2C=NOCCN1CCOCC1` (stereo not drawn) [ST1600, 7-[2-(4-morpholinyl)ethoxy]iminomethylcamptothecin], for which the “growth of the yeasts transformed” value in test [1] was “inhibit the growth”.

For `CC[C@@]1(O)C(=O)OCc2c1cc1n(c2=O)Cc2c-1nc1ccccc1c2/C=N\OCCN` [ST1968, 7-(2-amino)ethoxyiminomethylcamptothecin], in test [2], the “growth of the transformed YCpGAL1htop1K720E mutant” value is reported as “able to inhibit the growth”. Besides, the CR in test [3] (15 mg/kg) is listed as 6/8; in test [4] (15 mg/kg), 8/8; in test [4] (30 mg/kg) it was 7/7; in test [5] (30 mg/kg), 0/8. Also, the LCK is 2.2 in test [3] (15 mg/kg); 1.9 in test [3] (30 mg/kg); 6.3 in test [4] (15 mg/kg); >>6.3 in test [4] (30 mg/kg); 1.3 in test [5] (30 mg/kg); 0.65 in test [6]. Further, the TVI % in test [3] (15 mg/kg) stood at 99%; in test [3] (30 mg/kg), 100%; in test [4] (15 mg/kg) it was 100%; in test [4] (30 mg/kg) it was 100%; in test [5] (30 mg/kg) it was 65%; in test [6], 66%. Besides, the “growth of the yeasts transformed” value in test [1] is “inhibit the growth”.

On to `CCC1(O)C(=O)OCc2c1cc1n(c2=O)Cc2c-1nc1ccccc1c2C=NOCCN(C)C` (stereo not drawn) [ST1969, 7-(2-dimethylamino)ethoxyiminomethylcamptothecin], for which, in test [2], the “growth of the transformed YCpGAL1htop1K720E mutant” value is on record as “able to inhibit the growth”. The “growth of the yeasts transformed” value in test [1] is “inhibit the growth”.

For the compound `CCC1(O)C(=O)OCc2c1cc1n(c2=O)Cc2c-1nc1ccccc1c2C=NOCc1ccc(N)cc1` (stereo not drawn) [ST1976, 7-(4-amino)benzyloxyiminomethylcamptothecin], the “growth of the yeasts transformed” value in test [1] was “inhibit the growth”.

With `CC[C@@]1(O)C(=O)OCc2c1cc1n(c2=O)Cc2cc3ccccc3nc2-1` [camptothecin], the “growth of the yeasts transformed” value in test [1] is “inhibit the growth”.

In the case of `N.N.O=C([O-])C1(C(=O)[O-])CCC1.[Pt+2]` [carboplatin], in test [3] (33.3 mg/kg), the CR is recorded as 0/7, the LCK came to 0.6 and the TVI % stood at 62%. In test [4] (25 mg/kg), the CR is given as 0/8, the LCK was 0.5 and the TVI % came to 26%.

For `CCc1c2c(nc3ccc(OC(=O)N4CCC(N5CCCCC5)CC4)cc13)-c1cc3c(c(=O)n1C2)COC(=O)[C@]3(O)CC` [irinotecan], in test [5] (60 mg/kg), the CR is 0/8, the LCK is given as 0.8 and the TVI % stood at 45%.

Take `CC(=O)O[C@H]1C(=O)[C@@]2(C)[C@H]([C@H](OC(=O)c3ccccc3)[C@]3(O)C[C@H](OC(=O)[C@H](O)[C@@H](NC(=O)c4ccccc4)c4ccccc4)C(C)=C1C3(C)C)[C@]1(OC(C)=O)CO[C@@H]1C[C@@H]2O` [paclitaxel]: in test [3] (16 mg/kg), the CR is recorded as 0/8, the LCK turned out to be 0.1 and the TVI % is given as 16%. Further, in test [4] (15 mg/kg), the CR is 6/6, the LCK is on record as 1.4 and the TVI % is recorded as 94%.

For the compound `CC[C@@]1(O)C(=O)OCc2c1cc1n(c2=O)Cc2cc3c(CN(C)C)c(O)ccc3nc2-1` [topotecan], in test [3] (10 mg/kg), the CR was 1/6, the LCK was 1.1 and the TVI % worked out at 85%. In test [4] (10 mg/kg), the CR was 1/8, the LCK turned out to be 1.2 and the TVI % was 93%.

These data come from patent publication US7888368B2, “Treatment of drug-resistant tumors” (Sigma-Tau Industrie Farmaceutiche Riunite S.p.A., priority 2005, dated 2011).
